Test results published in PubChem BioAssay (NCI).
Where “and” joins values, the source holds several entries; their conditions need not be identical. Equal values may be shown once.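 In this assay, cells in 96-well plates receive the compound at five concentrations for 48 hours. Endpoints are linearly interpolated between the surrounding concentrations. Here, GI50 denotes the concentration required for 50% inhibition of growth. The concentration for full growth arrest is given as TGI.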

Assays:
Assay in all cases: growth of human tumour cells (NCI), 48 h
[1] = test system: DU-145 prostate
[2] = test system: EKVX NSCLC
[3] = test system: HS 578T breast
[4] = test system: MCF7 breast
[5] = test system: MOLT-4 leukemia
[6] = test system: OVCAR-4 ovarian
[7] = test system: RXF 393 renal
[8] = test system: SNB-19 CNS
[9] = test system: UO-31 renal
[10] = test system: TK-10 renal

| SMILES | GI50 [1] [µM] | TGI [1] [µM] | GI50 [2] [µM] | TGI [2] [µM] | GI50 [3] | TGI [3] [µM] | GI50 [4] | TGI [4] [µM] | GI50 [5] | TGI [5] [µM] | GI50 [6] [µM] | TGI [6] [µM] | GI50 [7] [µM] | TGI [7] [µM] | GI50 [8] [µM] | TGI [8] [µM] | GI50 [9] | TGI [9] [µM] | GI50 [10] [µM] | TGI [10] [µM] |
| --- | --- | --- | --- | --- | --- | --- | --- | --- | --- | --- | --- | --- | --- | --- | --- | --- | --- | --- | --- | --- |
| O=c1[nH]c(=O)c2cc3cc(C4CC(O)C(CO)O4)ccc3cc2[nH]1 (stereo unspecified) | > 100 | > 100 | > 100 | > 100 | > 100 µM | > 100 | > 100 µM | > 100 | > 100 µM | > 100 | 58.7 | > 100 | > 100 | > 100 | > 100 | > 100 | 8.48 µM | 67 |  |  |
| COc1ccc(Nc2cc(C)nc(NCc3ccccc3)n2)cc1 | 10.6 | 23 | 3.3 | 18.6 | 11 µM | 39.2 | 3.51 µM | 18.9 | 5.5 µM | 26.9 | 2.42 | 19.3 | 3.07 | 14.4 | 5.02 | 28.8 | 2.77 µM | 15.9 | 5.48 | 18.9 |
| O=C(NC(=O)c1ccccc1[N+](=O)[O-])Nc1ccc(Oc2ncc(Cl)cn2)c([N+](=O)[O-])c1 |  | > 100 |  | > 100 |  | 0.636 |  | > 100 |  | > 100 |  | > 100 |  |  |  | > 100 |  | > 95.7 |  | > 100 |
| O=C(O)C(C(=O)O)P(=S)(S)c1ccccc1 (stereo unspecified) |  | > 100 |  | > 100 |  | > 100 |  | > 100 |  | > 100 |  | > 100 |  | > 100 |  | > 100 |  | > 100 |  | > 100 |
| Cn1nc(C(F)(F)F)cc1-c1c[nH]c(OCc2ccc(Cl)cc2)c(-c2ccc(Cl)c(C(F)(F)F)c2)c1=O | 1.64 | > 50 | 1.39 | > 50 | 1.07 µM | 3.85 | 1.22 µM | > 50 | 1.16 µM | 3.03 | 1.43 | > 50 | 1.13 | 3.4 | 1.63 | > 50 | 1.05 µM | 3.56 | 1.8 | > 36.6 |
| N#Cc1c(N)n2c(nc1=Nc1ccc(Cl)cc1)sc1cc(Cl)ccc12 | > 100 | > 100 | 10.2 | > 100 | 2.98 µM and 1.44 µM | 5.92 | 1.83 µM | > 100 | 4.42 µM |  | 9.82 | > 100 |  |  | > 100 | > 100 |  |  | 15 | > 100 |
| c1ccc2cc(NCNc3ccc4ccccc4c3)ccc2c1 |  | 27.4 |  | 65.5 |  | > 100 |  | 25.6 |  | 29.9 |  | 26.6 |  | 29.9 |  | > 100 |  | 41.6 |  | > 67.6 |
| CN(C)CCCCC(C(=O)CBr)(c1ccccc1)c1ccccc1 | 1.66 | 3.63 | 2.22 | 7.42 | 3.11 µM | 22.7 | 1.5 µM | 3.25 | 1.92 µM | 5.67 | 1.54 | 7.88 | 1.74 | 4.06 | 7.43 | 23.9 | 1.27 µM | 2.79 | 1.5 | 3.01 |
| CCc1nc(N)nc(N)c1-c1ccc2nnn(O)c2c1 |  | > 100 |  | > 100 |  | > 100 |  | > 100 |  | > 100 |  | > 100 |  | > 100 |  | > 100 |  | > 100 |  | > 100 |
| CC[C@@H](C(=O)[C@H](C)[C@H](O)[C@@H](C)[C@H]1O[C@H]([C@@H](CC)C(=O)N(CC)CC)CC[C@H]1C)C1O[C@]2(C=C[C@@H](O)[C@]3(CC[C@@](C)([C@H]4CC[C@](O)(CC)[C@H](C)O4)O3)O2)[C@H](C)C[C@@H]1C (stereo partly specified) | 3.91 | 14.9 | 2.58 | 11.4 | 2.9 µM | 13.8 | 2.61 µM | 10.1 | 2.55 µM | 7.05 | 3.04 | 11.3 | 2.06 | 5.87 | 3.24 | 16.8 | 2.4 µM | 7.94 | 3.35 | 26.7 |
| C=C1C(=O)O[C@H]2C[C@@H]1CC/C(C)=C/CC/C(C)=C/CC[C@@]2(C)O | 45.3 | > 100 | > 100 | > 100 | 48 µM | > 100 | 37.3 µM | > 100 | 24.5 µM | > 100 | > 100 | > 100 | > 100 | > 100 | > 100 | > 100 | 30.9 µM | 87.4 | 21.5 | 67.7 |
| COc1cc2ncnc(Nc3cccc(Cl)c3F)c2cc1OC(=O)N1CCN(C)C[C@H]1C | 7.35 | > 100 | 0.253 | > 61.2 | 21 µM | > 60.8 | > 39 µM | > 77.3 | > 46.2 µM | > 81.3 | > 44.5 | > 79.1 | > 34.4 | > 50.8 | > 44.8 | > 100 | 6.89 µM | > 50.2 | 0.18 | 20 |
| C[C@@H](NC(=O)/C(C#N)=C/c1ccc([N+](=O)[O-])cc1)c1ccccc1 | 2.07 | 4.33 | 6.81 | 20.7 | 5.92 µM | > 32.9 | 2.41 µM | 7.65 | 3.02 µM | 7.3 | 2.15 | 5.95 | 1.62 | 3.04 | 2.52 | 7.31 | 0.559 µM | 1.06 | 5.07 | 12.1 |
| C#CCN(Cc1nc2cc(C(F)(F)F)ccc2nc1-c1ccccc1)c1ccc(C)cc1 | > 34.5 | > 77.9 | 29.1 | > 62.1 | 10.2 µM | > 54.4 | 2.38 µM | > 59.1 | 3.1 µM | > 79.9 | > 24.9 | > 43.2 | 4.18 | 28 | 6.2 | > 36.1 | 13.2 µM | 45.5 | 15.4 | > 39.6 |
| N=C(N)SCc1c2ccccc2c(CSC(=N)N)c2ccccc12 | 5.63 | 20 | 13.4 | 51.6 | 5.75 µM | 34.3 | 1.54 µM | 15.5 | 1.24 µM | 8.23 | 11.7 | 35.5 | 8.22 | 23.7 | 11.5 | 25 | 14.1 µM | 34.5 | 22.3 | 45.3 |
| COc1ccc2c(O)c(/C=C3\N=Nc4ccccc43)oc2c1C[C@@H]1CCNC[C@H]1F | 11.2 | 23.7 | 12.2 | 25.5 | 10.3 µM | 28.7 | 3.44 µM | 19.5 | 4.5 µM | 21.1 | 11.4 | 26.6 | 1.66 | 3.17 | 9.29 | 28.2 | 7.55 µM | 22.1 | 15 | 29.4 |
| CCOC(=O)c1cc(C(=O)c2cc(OC)c(OC)c(OC)c2)n2c1ccc1ccccc12 | 0.372 | > 100 | 0.461 | > 100 | 0.276 µM | > 20.6 | 0.1 µM | > 100 | 0.477 µM | > 100 |  |  | 0.22 | 0.81 | 0.636 | > 100 | 0.502 µM | > 100 | 2.37 | > 100 |
| COc1cc2c(c(OC)c1OC)-c1ccc(OC)c(=O)cc1[C@@H](NC(C)=O)CC2 |  | 0.0538 | 16.7 | > 625 |  | > 100 | < 0.01 µM and 0.00342 µM and < 0.0114 µM |  | < 0.01 µM and 0.0352 µM and 0.0625 µM |  |  | > 100 |  |  |  |  | 4.74 µM and 1.09 µM and 1.33 µM | > 625 | > 100 | > 100 |
| CC(=O)Nc1c(I)c(NC(C)=O)c(I)c(C(=O)O)c1I | > 100 | > 100 | > 100 | > 100 | > 100 µM | > 100 | > 100 µM | > 100 | > 100 µM | > 100 | > 100 | > 100 | > 100 | > 100 |  |  | > 100 µM | > 100 | > 100 | > 100 |
| COC(=O)C1=CO[C@@H](OC2OC(CO)C(O)C(O)C2O)[C@H]2[C@@H](C)[C@@H](O)[C@@H](O)[C@@H]12 (stereo partly specified) |  | > 100 |  | > 100 |  | > 100 |  | > 100 |  | > 100 |  | > 100 |  | > 100 |  |  |  | > 100 |  | > 100 |
| COc1cc2c(cc1Cc1cccc(Cl)c1F)c(=O)c(C(=O)O)cn2[C@@H](CO)C(C)C | 5.62 | 18.8 | 3.85 | 17.3 | 3.97 µM | 32.7 | 3.54 µM | 16.3 | 4.67 µM | 18.5 | 3.7 | 16.6 | 4.57 | 16.3 | 3.07 | 16 | 2.62 µM | 11.9 |  |  |
